Assay results: patent US20240158348A1, “HERBICIDAL CYCLIC AMIDES N-SUBSTITUTED WITH A HALOALKYLSULFONYLANILIDE GROUP” (FMC Corporation, priority 2021, published 2024)

Legend:
Format in all cases: in vivo
[1] = tested on: blackgrass (Alopecurus myosuroides); assay: Test A postemergence, blackgrass; details: 0 to 100 scale, 10 days
From the text: (§1) Seeds of plant species selected from barnyardgrass (Echinochloa crus-galli), blackgrass (Alopecurus myosuroides), corn (Zea mays), foxtail, giant (giant foxtail, Setaria faberi), goosegrass (Eleusine indica), kochia (Bassia scoparia), oat, wild (wild oat, Avena fatua), pigweed, palmer (palmer amaranth, Amaranthus palmeri), pigweed, redroot (redroot pigweed, Amaranthus retroflexus), ragweed (common ragweed, Ambrosia artemisiifolia), ryegrass, Italian (Italian ryegrass, Lolium multiflorum), soybean (Glycine max), and wheat (Triticum aestivum) were planted into a blend of loam soil and sand and treated preemergence with a directed soil spray using test chemicals formulated in a non-phytotoxic solvent mixture which included a surfactant.
(§2) At the same time, plants selected from these crop and weed species and also galium (catchweed bedstraw, Galium aparine) and horseweed (Erigeron canadensis) were planted in pots containing the same blend of loam soil and sand and treated with postemergence applications of test chemicals formulated in the same manner. Plants ranged in height from 2 to 10 cm and were in the one- to two-leaf stage for the postemergence treatment. Treated plants and untreated controls were maintained in a greenhouse for 10 days, after which time all treated plants were compared to untreated controls and visually evaluated for injury. Plant response ratings, summarized in Table A, are based on a 0 to 100 scale where 0 is no effect and 100 is complete control. A dash (-) response means no test result.

kochia (Bassia scoparia) = assay: Test A preemergence, kochia; details: pre-emergence, 240 h, 0 to 100 scale, 10 days, read-out: Plant response rating, Kochia; for pest or weed control at 31 g/ha: 31 g ai/ha; for pest or weed control at 125 g/ha: 125 g ai/ha
From the text: as §1, §2

[2] = tested on: ryegrass, Italian (Italian ryegrass, Lolium multiflorum); assay: Test A preemergence, Italian ryegrass; details: pre-emergence, 240 h, 0 to 100 scale, 10 days, read-out: Plant response rating, Ryegrass, Italian; for pest or weed control at 31 g/ha: 31 g ai/ha; for pest or weed control at 125 g/ha: 125 g ai/ha
From the text: as §1, §2

[3] = tested on: wheat (Triticum aestivum); assay: Test A postemergence, wheat; details: post-emergence, 240 h, 0 to 100 scale, 10 days, read-out: Plant response rating, Wheat; for plant injury at 31 g/ha: 31 g ai/ha; for plant injury at 125 g/ha: 125 g ai/ha
From the text: as §1, §2

[4] = tested on: ragweed (common ragweed, Ambrosia artemisiifolia); assay: Test A preemergence, ragweed; details: pre-emergence, 240 h, 0 to 100 scale, 10 days, read-out: Plant response rating, Ragweed; for pest or weed control at 31 g/ha: 31 g ai/ha; for pest or weed control at 125 g/ha: 125 g ai/ha
From the text: as §1, §2

[5] = tested on: foxtail, giant (giant foxtail, Setaria faberi); assay: Test A preemergence, giant foxtail; details: pre-emergence, 240 h, 0 to 100 scale, 10 days, read-out: Plant response rating, Foxtail, Giant; for pest or weed control at 31 g/ha: 31 g ai/ha; for pest or weed control at 125 g/ha: 125 g ai/ha
From the text: as §1, §2

[6] = tested on: pigweed, palmer (palmer amaranth, Amaranthus palmeri); assay: Test A preemergence, palmer amaranth; details: 0 to 100 scale, 10 days
From the text: as §1, §2

soybean (Glycine max) [7] = assay: Test A postemergence, soybean; details: 0 to 100 scale, 10 days
From the text: as §1, §2

soybean (Glycine max) [8] = assay: Test A preemergence, soybean; details: 0 to 100 scale, 10 days
From the text: as §1, §2

[9] = tested on: pigweed, palmer (palmer amaranth, Amaranthus palmeri); assay: Test A postemergence, palmer amaranth; details: 0 to 100 scale, 10 days
From the text: as §1, §2

| Compound | Plant response rating, Blackgrass ([1]; 31 g ai/ha) | Plant response rating, Blackgrass ([1]; 125 g ai/ha) | pest or weed control at 31 g/ha (kochia (Bassia scoparia)) [%] | pest or weed control at 125 g/ha (kochia (Bassia scoparia)) [%] | pest or weed control at 31 g/ha [2] [%] | pest or weed control at 125 g/ha [2] [%] | plant injury at 31 g/ha [3] [%] | plant injury at 125 g/ha [3] [%] | pest or weed control at 31 g/ha [4] [%] | pest or weed control at 125 g/ha [4] [%] | pest or weed control at 31 g/ha [5] [%] | pest or weed control at 125 g/ha [5] [%] | Plant response rating, Pigweed, Palmer ([6]; 31 g ai/ha) | Plant response rating, Pigweed, Palmer ([6]; 125 g ai/ha) | Plant response rating, Soybean (soybean (Glycine max) [7]; 31 g ai/ha) | Plant response rating, Soybean (soybean (Glycine max) [7]; 125 g ai/ha) | Plant response rating, Soybean (soybean (Glycine max) [8]; 31 g ai/ha) | Plant response rating, Soybean (soybean (Glycine max) [8]; 125 g ai/ha) | Plant response rating, Pigweed, Palmer ([9]; 31 g ai/ha) | Plant response rating, Pigweed, Palmer ([9]; 125 g ai/ha) |
| --- | --- | --- | --- | --- | --- | --- | --- | --- | --- | --- | --- | --- | --- | --- | --- | --- | --- | --- | --- | --- |
| C#CCOC1CCN(c2cc(NS(=O)(=O)C(F)(F)F)c(C)cc2C)C1=O (centres unmarked) [Compound 1, N-[2,4-dimethyl-5-[2-oxo-3-(2-propyn-1-yloxy)-1-pyrrolidinyl]phenyl]-1,1,1-trifluoromethanesulfonamide] | 10 | 50 | 70 | 100 | 100 | 100 | 60 | 70 | 30 | 90 | 90 | 100 | – | – | – | – | – | – | – | – |
| C=CCOC1CCN(c2cc(NS(=O)(=O)C(F)(F)F)c(C)cc2C)C1=O (centres unmarked) [Compound 2, N-[2,4-dimethyl-5-[2-oxo-3-(2-propen-1-yloxy)-1-pyrrolidinyl]phenyl]-1,1,1-trifluoromethanesulfonamide] | 20 | 40 | 50 | 90 | 90 | 100 | 70 | 70 | 20 | 80 | 100 | 100 | – | – | – | – | – | – | – | – |
| Cc1cc(C)c(N2CCC(OC3CC3)C2=O)cc1NS(=O)(=O)C(F)(F)F (centres unmarked) [Compound 3, N-[5-[3-(cyclopropyloxy)-2-oxo-1-pyrrolidinyl]-2,4-dimethylphenyl]-1,1,1-trifluoromethanesulfonamide] | 40 | 70 | 100 | 100 | 90 | 100 | 80 | 80 | 90 | 100 | 100 | 100 | 100 | 100 | 60 | 70 | 30 | 80 | 40 | 60 |
| Cc1cc(C)c(N2CCC(OC3CCC3)C2=O)cc1NS(=O)(=O)C(F)(F)F (centres unmarked) [Compound 4, N-[5-[3-(cyclobutyloxy)-2-oxo-1-pyrrolidinyl]-2,4-dimethylphenyl]-1,1,1-trifluoromethanesulfonamide] | – | – | 70 | 100 | 100 | 100 | 50 | 50 | 90 | 100 | 100 | 100 | 100 | 100 | 50 | 70 | 70 | 100 | 60 | 90 |
